“Also recorded” adds a separate entry of the source. Read-outs that look alike come from different tables or passages of the source.
Columns and labels:
[1] = tablet form; ref [25]; cited from earlier work
[2] = test system: relapsed or refractory multiple myeloma; experiment: Treatment response by IMWG criteria, phase 1/2 trial; type: in vivo, human; details: single-agent ricolinostat
[3] = Plasma pharmacokinetics; type: in vivo, human
[4] = test system: acetylated histones (a substrate of class I HDACs); experiment: Acetylated histones in CD3+ peripheral blood lymphocytes; type: in vivo, human; details: 1 hour after first dose
[5] = test system: patients with relapsed or refractory multiple myeloma
[6] = test system: acetylated tubulin (a substrate of HDAC6); details: for change in acetylated tubulin: 1 hour after first dose
[7] = initial 160 mg daily oral dose, cohort 4′, n=14, mean ± SD
[8] = single agent ricolinostat 160 mg
[9] = single agent ricolinostat 240 mg
[10] = single agent ricolinostat, N=15
[11] = single-agent ricolinostat, 15 patients

## O=C(CCCCCCNC(=O)c1cnc(N(c2ccccc2)c2ccccc2Cl)nc1)NO [ACY-241]
[1]
  exposure plateau: does not exhibit the exposure plateau

## O=C(CCCCCCNC(=O)c1cnc(N(c2ccccc2)c2ccccc2)nc1)NO [ricolinostat]
[2]; 6 patients, range 5 – 30
  duration of stable disease, median: 11 weeks
[2]; 15 patients
  clinical response (minor or partial response): nor clinical responses; also recorded: no patients had a minor or partial response
[2]; of the 15 patients
  patients with stable disease: 6
[3]; bid dosing
  drug accumulation upon repeated dosing: 1.01 ± 0.26
[3]; human, plasma, oral, mean Cmax on day 11, bid administration, n=10
  Cmax: 524 ± 150 ng/mL
[3]; human, plasma, oral, mean Cmax on day 11, qd dosing, n=11
  Cmax: 648 ± 200 ng/mL
[3]; human, plasma, po, 160 mg
  half-life: 3.26 ± 0.46 h
[3]; [7]
  apparent oral clearance: 111 ± 25 L/h
  apparent oral total body volume of distribution: 521 ± 166 L
[3]; oral 40 to 360 mg, alone or with bortezomib
  dose dependence of exposure (Cmax): plateau in exposure at dose levels ≥160 mg; also recorded: no significant increase at doses greater than 160 mg
[3]; oral, initial dose and dose on day 11, range 0.25–2.0 hours
  median time of maximum observed concentration in plasma (Cmax): 1.0 h
[3]; qd dosing
  drug accumulation upon repeated dosing: 1.10 ± 0.20
[4]; [8]
  change in histone acetylation: unchanged
[4]; [9]
  change in histone acetylation: qualitative increase
[5]; single agent ricolinostat therapy
  toxicity, overall: neither significant toxicity
[5]; [10]
  Amylase elevation, All grades: 0 (0) N (%)
  Amylase elevation, Grade 3/4: 0 (0) N (%)
  Anemia, All grades: 3 (20) N (%)
  Anemia, Grade 3/4: 1 (7) N (%)
  Blood creatinine elevation, All grades: 5 (33) N (%)
  Blood creatinine elevation, Grade 3/4: 0 (0) N (%)
  Bronchitis, All grades: 0 (0) N (%)
  Bronchitis, Grade 3/4: 0 (0) N (%)
  Diarrhea, All grades: 3 (20) N (%)
  Dyspnea, All grades: 1 (7) N (%)
  Dyspnea, Grade 3/4: 0 (0) N (%)
  Fatigue, All grades: 4 (27) N (%)
  Febrile neutropenia, All grades: 0 (0) N (%)
  Febrile neutropenia, Grade 3/4: 0 (0) N (%)
  Hyperglycemia, All grades: 0 (0) N (%)
  Hyperglycemia, Grade 3/4: 0 (0) N (%)
  Hypertension, All grades: 0 (0) N (%)
  Hypertension, Grade 3/4: 0 (0) N (%)
  Hypokalemia, All grades: 1 (7) N (%)
  Hypokalemia, Grade 3/4: 0 (0) N (%)
  Hyponatremia, All grades: 1 (7) N (%)
  Hyponatremia, Grade 3/4: 0 (0) N (%)
  Hypophosphatemia, All grades: 2 (13) N (%)
  Hypophosphatemia, Grade 3/4: 1 (7) N (%)
  Influenza, All grades: 0 (0) N (%)
  Influenza, Grade 3/4: 0 (0) N (%)
  Nausea, All grades: 2 (13) N (%)
  Nausea, Grade 3/4: 0 (0) N (%)
  Neutropenia, All grades: 2 (13) N (%)
  Neutropenia, Grade 3/4: 1 (7) N (%)
  Peripheral neuropathy, All grades: 0 (0) N (%)
  Peripheral neuropathy, Grade 3/4: 0 (0) N (%)
  Pneumonia, All grades: 0 (0) N (%)
  Pneumonia, Grade 3/4: 0 (0) N (%)
  Pulmonary embolism, All grades: 0 (0) N (%)
  Pulmonary embolism, Grade 3/4: 0 (0) N (%)
  Thrombocytopenia, All grades: 2 (13) N (%)
  Thrombocytopenia, Grade 3/4: 2 (13) N (%)
  Transaminase elevation, All grades: 1 (7) N (%)
  Transaminase elevation, Grade 3/4: 0 (0) N (%)
  Vomiting, All grades: 0 (0) N (%)
  Vomiting, Grade 3/4: 0 (0) N (%)
[5]; single-agent dose escalation, 40-360 mg daily
  dose limiting toxicities: did not observe any dose limiting toxicities
[5]; single-agent dose escalation, up to 360 mg qd
  maximum tolerated dose: did not identify a maximum tolerated dose
[5]; single-agent ricolinostat
  QT interval prolongation, serial triplicate electrocardiograms: no evidence of QT interval prolongation
  discontinuation because of a treatment emergent adverse event: No patient discontinued
[5]; [11]
  adverse events observed during therapy: anemia: 20%
  adverse events observed during therapy: diarrhea: 20%
  adverse events observed during therapy: fatigue: 27%
  adverse events observed during therapy: renal insufficiency: 33%
[6]; samples taken during therapy
  acetylated tubulin in peripheral blood lymphocytes, dose dependence: dose-dependent increases
[6]; [8]
  change in acetylated tubulin: increase
[6]; [9]
  change in acetylated tubulin: upward trend

## CC(C)C[C@H](NC(=O)[C@H](Cc1ccccc1)NC(=O)c1cnccn1)B(O)O [bortezomib, reference compound]
[3]; after i.v. injection, days 1 and 11, with few exceptions
  time of observed Cmax of bortezomib (first plasma sample): 15 min
[3]; human, plasma, mean Cmax of bortezomib, day 1 dose, cohort 4′ ([…]^2 with ricolinostat 160 mg QD), n=14
  Cmax: 24 ± 11 ng/mL
[3]; human, plasma, mean Cmax of bortezomib, day 11 dose, cohort 4′ ([…]^2 with ricolinostat 160 mg QD), n=11
  Cmax: 40 ± 15 ng/mL
